# Results from article PMC3365510 (Bioorganic & medicinal chemistry letters, 2012).
# Where “and” joins values, the source holds several entries; their conditions need not be identical. Equal values may be shown once. Entries after “also recorded” stand apart in the source; their conditions may differ. Read-outs that look alike come from different tables or passages of the source.
# Assays:
# mGlu3 [1] = biological target: T1, mGlu3 (Homo sapiens, UniProt Q14832); experiment: mGlu3 GIRK assay; assay type: cell-based
# T1 sequence (Q14832 23-879): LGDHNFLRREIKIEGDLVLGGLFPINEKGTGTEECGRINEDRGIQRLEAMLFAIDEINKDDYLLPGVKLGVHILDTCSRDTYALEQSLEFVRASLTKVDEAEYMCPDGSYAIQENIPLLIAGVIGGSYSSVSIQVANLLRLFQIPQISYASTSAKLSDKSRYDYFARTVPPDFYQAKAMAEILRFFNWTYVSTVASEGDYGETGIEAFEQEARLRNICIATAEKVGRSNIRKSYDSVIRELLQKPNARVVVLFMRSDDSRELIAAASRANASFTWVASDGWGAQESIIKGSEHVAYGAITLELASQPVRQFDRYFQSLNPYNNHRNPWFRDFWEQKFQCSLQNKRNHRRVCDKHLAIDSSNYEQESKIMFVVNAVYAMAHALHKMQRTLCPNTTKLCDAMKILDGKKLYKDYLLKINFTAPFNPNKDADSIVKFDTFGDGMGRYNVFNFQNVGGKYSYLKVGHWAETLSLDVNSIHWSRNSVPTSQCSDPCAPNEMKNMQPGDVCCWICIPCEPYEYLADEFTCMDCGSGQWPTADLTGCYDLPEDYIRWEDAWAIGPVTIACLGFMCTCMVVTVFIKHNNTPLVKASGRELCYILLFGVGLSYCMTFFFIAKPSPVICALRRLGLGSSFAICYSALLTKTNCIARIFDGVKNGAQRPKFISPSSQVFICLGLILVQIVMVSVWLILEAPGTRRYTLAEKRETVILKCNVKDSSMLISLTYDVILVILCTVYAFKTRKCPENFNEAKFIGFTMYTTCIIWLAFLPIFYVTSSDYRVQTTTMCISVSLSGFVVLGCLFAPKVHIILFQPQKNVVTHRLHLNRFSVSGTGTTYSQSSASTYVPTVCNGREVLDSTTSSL
# six other mGlu subtypes = experiment: Activity at the six other mGlu subtypes; assay type: cell-based
# mGlu2 = mGlu2 (Homo sapiens, UniProt Q14416); experiment: mGlu2 GIRK assay; assay type: cell-based; conditions: mGlu3 NAM potency versus mGlu2 GIRK
# mGlu2, sequence (Q14416 19-872): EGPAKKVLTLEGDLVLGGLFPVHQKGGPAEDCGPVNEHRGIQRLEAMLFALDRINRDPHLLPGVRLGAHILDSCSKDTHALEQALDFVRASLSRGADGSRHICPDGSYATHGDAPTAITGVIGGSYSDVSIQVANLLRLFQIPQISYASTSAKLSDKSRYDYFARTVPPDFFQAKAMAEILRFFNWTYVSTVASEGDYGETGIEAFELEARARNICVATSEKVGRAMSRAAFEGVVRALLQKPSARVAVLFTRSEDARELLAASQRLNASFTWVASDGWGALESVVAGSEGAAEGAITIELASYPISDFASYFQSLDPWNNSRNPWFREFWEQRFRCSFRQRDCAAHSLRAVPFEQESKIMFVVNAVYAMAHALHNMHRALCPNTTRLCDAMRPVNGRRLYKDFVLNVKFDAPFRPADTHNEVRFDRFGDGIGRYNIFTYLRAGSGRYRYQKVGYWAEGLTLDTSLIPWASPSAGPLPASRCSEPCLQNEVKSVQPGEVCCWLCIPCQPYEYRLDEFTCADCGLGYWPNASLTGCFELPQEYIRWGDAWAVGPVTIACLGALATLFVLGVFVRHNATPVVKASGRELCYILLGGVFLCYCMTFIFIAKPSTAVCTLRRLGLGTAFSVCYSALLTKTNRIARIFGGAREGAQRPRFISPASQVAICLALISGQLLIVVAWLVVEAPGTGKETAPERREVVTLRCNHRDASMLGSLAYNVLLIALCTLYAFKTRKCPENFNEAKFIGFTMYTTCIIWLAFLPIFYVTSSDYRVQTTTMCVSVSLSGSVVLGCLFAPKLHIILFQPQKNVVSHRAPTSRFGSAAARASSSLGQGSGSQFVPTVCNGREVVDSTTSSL
# mGlu5 = mGlu5 (Homo sapiens, UniProt P41594); experiment: mGlu5 calcium assay; assay type: cell-based
# mGlu5, sequence (P41594 21-1212): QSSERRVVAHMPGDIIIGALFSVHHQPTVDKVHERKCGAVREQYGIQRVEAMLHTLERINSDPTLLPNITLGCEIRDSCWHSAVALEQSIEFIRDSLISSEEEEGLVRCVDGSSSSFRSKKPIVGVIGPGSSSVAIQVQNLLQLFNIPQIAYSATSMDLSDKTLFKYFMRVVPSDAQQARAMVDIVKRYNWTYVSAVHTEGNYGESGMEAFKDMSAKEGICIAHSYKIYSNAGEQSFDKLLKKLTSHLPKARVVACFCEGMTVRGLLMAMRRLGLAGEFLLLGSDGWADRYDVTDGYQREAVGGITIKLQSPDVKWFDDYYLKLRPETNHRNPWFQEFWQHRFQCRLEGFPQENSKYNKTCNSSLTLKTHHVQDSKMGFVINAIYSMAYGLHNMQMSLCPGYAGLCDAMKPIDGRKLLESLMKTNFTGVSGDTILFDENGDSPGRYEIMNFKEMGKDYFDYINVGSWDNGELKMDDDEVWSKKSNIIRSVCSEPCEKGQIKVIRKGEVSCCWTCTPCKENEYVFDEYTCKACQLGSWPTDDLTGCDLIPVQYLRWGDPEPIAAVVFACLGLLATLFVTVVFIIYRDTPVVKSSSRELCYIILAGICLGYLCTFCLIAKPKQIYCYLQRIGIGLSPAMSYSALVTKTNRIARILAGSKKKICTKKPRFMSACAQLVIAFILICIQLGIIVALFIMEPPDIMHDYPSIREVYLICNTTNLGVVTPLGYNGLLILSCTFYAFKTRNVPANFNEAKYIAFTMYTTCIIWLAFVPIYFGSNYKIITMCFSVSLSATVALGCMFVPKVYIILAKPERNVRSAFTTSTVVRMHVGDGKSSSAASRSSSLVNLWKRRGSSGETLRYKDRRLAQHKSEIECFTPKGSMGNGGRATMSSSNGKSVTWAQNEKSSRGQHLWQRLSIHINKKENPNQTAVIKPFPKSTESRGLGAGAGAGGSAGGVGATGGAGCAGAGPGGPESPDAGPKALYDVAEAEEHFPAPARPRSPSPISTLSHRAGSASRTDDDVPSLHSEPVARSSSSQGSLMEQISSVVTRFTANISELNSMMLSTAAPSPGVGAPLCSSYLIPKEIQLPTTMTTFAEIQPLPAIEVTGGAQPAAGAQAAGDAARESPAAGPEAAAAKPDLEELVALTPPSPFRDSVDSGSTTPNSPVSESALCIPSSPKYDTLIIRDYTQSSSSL
# mGlu3 [2] = biological target: T1, mGlu3; experiment: mGlu3 calcium assay, mGlu3 co-expressed with promiscuous G protein Gα15; assay type: cell-based
# mGlu3 [3] = biological target: T1, mGlu3; experiment: Schild analysis, glutamate concentration-response in mGlu3 GIRK; assay type: cell-based; conditions: rightward shift and decreased maximal efficacy of glutamate
# [4] = system: 68 GPCRs, ion channels and transporters; experiment: Lead Profiling Screen at Ricerca, radioligand binding assays; conditions: screened at 10 μM, 68 targets
# [5] = Intrinsic clearance in rat liver microsomes; assay type: in vitro ADME
# [6] = Intrinsic clearance in human liver microsomes; assay type: in vitro ADME
# [7] = Metabolite ID in rat liver microsomes; assay type: in vitro ADME
# [8] = Metabolite ID in human liver microsomes; assay type: in vitro ADME
# IP plasma:brain level = assay type: in vivo, rat; conditions: 10 mg/kg IP
# [9] = 10% Tween80 in 0.5% methylcellulose
compound,measurement,setting,value
O=C(c1ccc(C#Cc2ccccc2)cc1)N1CCC(O)CC1 [Compound 3],IC50,"mGlu3 [1]; mGlu3 IC50, mGlu3 GIRK assay",~10 µM and > 10 µM
same,activity at the six other mGlu subtypes,six other mGlu subtypes,no activity
COc1ccc(C#Cc2ccc(C(=O)N3CCCC(CO)C3)cc2)cc1 (stereo not drawn) [Compound 10e],block of the glutamate EC80 (in words),mGlu3 [1]; mGlu3 GIRK assay,full block
COc1ccc(C#Cc2ccc(C(=O)N3CCC[C@@H](CO)C3)cc2)cc1 [Compound 11],block of the glutamate EC80 (in words),mGlu3 [1]; mGlu3 GIRK assay,full blockade
same,potency ratio of 11 over 12,mGlu3 [1]; mGlu3 GIRK assay,2 fold
same,selectivity versus mGlu2,mGlu2,> 15 fold
same,activity/selectivity against mGlu5 (in words),mGlu5,complete specificity versus mGlu5
same,activity/selectivity against mGlu5 (in words),mGlu5; listed as ML289,inactive; also recorded: highly selective versus mGlu5
same,potentiation of an EC20 concentration of glutamate at mGlu5,"mGlu5; mGlu5 calcium assay, PAM mode",inactive
same,inhibition of an EC80 concentration of glutamate at mGlu5,"mGlu5; mGlu5 calcium assay, antagonist mode",inactive
same,% Glu Min,mGlu3 [2],2.1±0.3%
same,mechanism of mGlu3 antagonism,mGlu3 [3],non-competitive (allosteric) mechanism of action
same,inhibition of off-targets,[4],≤ 25%
same,CLint scaled,[5],240 mL/min/kg
same,CLint scaled,[6],572 mL/min/kg
same,principle biotransformation pathway,[7],P450-mediated O-demethylation
same,principle biotransformation pathway,[8],P450-mediated O-demethylation
same,brain level,IP plasma:brain level; [9],16.3 µM
same,plasma level,IP plasma:brain level; [9],9.7 µM
same,free concentration in rat brain,IP plasma:brain level; based on brain homogenate binding,~ 163 nM
COc1ccc(C#Cc2ccc(C(=O)N3CCC[C@H](CO)C3)cc2)cc1 [Compound 12],block of the glutamate EC80 (in words),mGlu3 [1]; mGlu3 GIRK assay,full blockade
